How the values were obtained:
Test in all cases: scanMAX Kinase panel (DiscoverX)
Assay type in all cases: binding
[1] = target: T1, EGFR(G719S) (Homo sapiens, UniProt P00533, G719S)
T1 construct: purchased DiscoverX scanMAX Kinase panel
Procedure: (§1) Among the example compounds of the present invention, the enzyme (kinase) selectivity of the selected compounds of Examples 1 and 4 was measured by requesting DiscoverX. At this time, the experiment was performed using a panel for scanMAX™ Kinase. The concentration of the drug treated to the enzyme was 1 μM in DMSO, and the percentage control (% control) was determined by the method shown in Equation 1 below. (Example Compound−Positive Control)/(Negative Control−Positive control)×100 [Equation 1]

[2] = target: T2, PCTK2 (Homo sapiens, UniProt Q00537); conditions: read-out: % Cont @ 1 uM
T2 construct: purchased DiscoverX scanMAX Kinase panel
Procedure: as §1

[3] = target: T3, TIE2 (Homo sapiens, UniProt Q02763); conditions: read-out: % Cont @ 1 uM
T3 construct: purchased DiscoverX scanMAX Kinase panel
Procedure: as §1

[4] = target: T4, p38-gamma (Homo sapiens, UniProt P53778); conditions: read-out: % Cont @ 1 uM
T4 construct: purchased DiscoverX scanMAX Kinase panel
Procedure: as §1

[5] = target: T5, IRAK4 (Homo sapiens, UniProt Q9NWZ3)
T5 construct: purchased DiscoverX scanMAX Kinase panel
Procedure: as §1

[6] = target: T6, TNNI3K (Homo sapiens, UniProt Q59H18); conditions: read-out: % Cont @ 1 uM
T6 construct: purchased DiscoverX scanMAX Kinase panel
Procedure: as §1

[7] = target: T7, ABL1(T315I)-nonphosphorylated (Homo sapiens, UniProt P00519, T315I); conditions: read-out: % Cont @ 1 uM
T7 construct: purchased DiscoverX
Procedure: as §1

[8] = target: T8, EPHB1 (Homo sapiens, UniProt P54762); conditions: read-out: % Cont @ 1 uM
T8 construct: purchased DiscoverX scanMAX Kinase panel
Procedure: as §1

[9] = target: T9, TESK1 (Homo sapiens, UniProt Q15569); conditions: read-out: % Cont @ 1 uM
T9 construct: purchased DiscoverX scanMAX Kinase panel
Procedure: as §1

[10] = target: T10, MERTK (Homo sapiens, UniProt Q12866); conditions: read-out: % Cont @ 1 uM
T10 construct: purchased DiscoverX scanMAX Kinase panel
Procedure: as §1

[11] = target: T11, EPHA7 (Homo sapiens, UniProt Q15375); conditions: read-out: % Cont @ 1 uM
T11 construct: purchased DiscoverX scanMAX Kinase panel
Procedure: as §1

[12] = target: T12, EGFR(G719C) (Homo sapiens, UniProt P00533, G719C)
T12 construct: purchased DiscoverX scanMAX Kinase panel
Procedure: as §1

[13] = target: T13, FGR (Homo sapiens, UniProt P09769); conditions: read-out: % Cont @ 1 uM
T13 construct: purchased DiscoverX scanMAX Kinase panel
Procedure: as §1

[14] = target: T14, SIK (Homo sapiens, UniProt P57059)
T14 construct: purchased DiscoverX scanMAX Kinase panel
Procedure: as §1

[15] = target: T15, TXK (Homo sapiens, UniProt P42681); conditions: read-out: % Cont @ 1 uM
T15 construct: purchased DiscoverX scanMAX Kinase panel
Procedure: as §1

[16] = target: T16, p38-beta (Homo sapiens, UniProt Q15759); conditions: read-out: % Cont @ 1 uM
T16 construct: purchased DiscoverX scanMAX Kinase panel
Procedure: as §1

[17] = target: T17, TAOK3 (Homo sapiens, UniProt Q9H2K8); conditions: read-out: % Cont @ 1 uM
T17 construct: purchased DiscoverX scanMAX Kinase panel
Procedure: as §1

[18] = target: T18, IKK-alpha (Homo sapiens, UniProt O15111); conditions: read-out: % Cont @ 1 uM
T18 construct: purchased DiscoverX scanMAX Kinase panel
Procedure: as §1

[19] = target: T19, PDGFRA (Homo sapiens, UniProt P16234); conditions: read-out: % Cont @ 1 uM
T19 construct: purchased DiscoverX scanMAX Kinase panel
Procedure: as §1

[20] = target: T20, FGFR1 (Homo sapiens, UniProt P11362); conditions: read-out: % Cont @ 1 uM
T20 construct: purchased DiscoverX scanMAX Kinase panel
Procedure: as §1

[21] = target: T21, EGFR(S752-I759del) (Homo sapiens, UniProt P00533, DEL752-759)
T21 construct: purchased DiscoverX scanMAX Kinase panel
Procedure: as §1

[22] = target: T22, FLT3(D835V) (Homo sapiens, UniProt P36888, D835V); conditions: read-out: % Cont @ 1 uM
T22 construct: purchased DiscoverX scanMAX Kinase panel
Procedure: as §1

[23] = target: T23, KIT(D816V) (Homo sapiens, UniProt P10721, D816V); conditions: read-out: % Cont @ 1 uM
T23 construct: purchased DiscoverX scanMAX Kinase panel
Procedure: as §1

[24] = target: T24, TYK2(JH1domain-catalytic) (Homo sapiens, UniProt P29597)
T24 construct: TYK2(JH1domain-catalytic); purchased DiscoverX scanMAX Kinase panel
Procedure: as §1

[25] = target: T25, BMX (Homo sapiens, UniProt P51813); conditions: read-out: % Cont @ 1 uM
T25 construct: purchased DiscoverX scanMAX Kinase panel
Procedure: as §1

[26] = target: T26, LRRK2 (Homo sapiens, UniProt Q5S007); conditions: read-out: % Cont @ 1 uM
T26 construct: purchased DiscoverX scanMAX Kinase panel
Procedure: as §1

[27] = target: T27, CDK11 (Homo sapiens, UniProt Q9BWU1)
T27 construct: purchased DiscoverX scanMAX Kinase panel
Procedure: as §1

[28] = target: T28, ABL1(Q252H)-nonphosphorylated (Homo sapiens, UniProt P00519, Q252H); conditions: read-out: % Cont @ 1 uM
T28 construct: purchased DiscoverX
Procedure: as §1

[29] = target: T29, EPHA6 (Homo sapiens, UniProt Q9UF33); conditions: read-out: % Cont @ 1 uM
T29 construct: purchased DiscoverX scanMAX Kinase panel
Procedure: as §1

[30] = target: T30, PFTAIRE2 (Homo sapiens, UniProt Q96Q40); conditions: read-out: % Cont @ 1 uM
T30 construct: purchased DiscoverX scanMAX Kinase panel
Procedure: as §1

[31] = target: T31, GAK (Homo sapiens, UniProt O14976); conditions: read-out: % Cont @ 1 uM
T31 construct: purchased DiscoverX scanMAX Kinase panel
Procedure: as §1

[32] = target: T32, YES (Homo sapiens, UniProt P07947); conditions: read-out: % Cont @ 1 uM
T32 construct: purchased DiscoverX scanMAX Kinase panel
Procedure: as §1

[33] = target: T33, MST3 (Homo sapiens, UniProt Q9Y6E0)
T33 construct: purchased DiscoverX scanMAX Kinase panel
Procedure: as §1

[34] = target: T34, SLK (Homo sapiens, UniProt Q9H2G2); conditions: read-out: % Cont @ 1 uM
T34 construct: purchased DiscoverX scanMAX Kinase panel
Procedure: as §1

[35] = target: T35, RIPK2 (Homo sapiens, UniProt O43353); conditions: read-out: % Cont @ 1 uM
T35 construct: purchased DiscoverX scanMAX Kinase panel
Procedure: as §1

[36] = system: FLT3(ITD, F691L)
Procedure: as §1

[37] = target: T36, FLT1 (Homo sapiens, UniProt P17948); conditions: read-out: % Cont @ 1 uM
T36 construct: purchased DiscoverX scanMAX Kinase panel
Procedure: as §1

[38] = target: T37, MET(Y1235D) (Homo sapiens, UniProt P08581, Y1235D)
T37 construct: purchased DiscoverX scanMAX Kinase panel
Procedure: as §1

[39] = target: T38, MLK3 (Homo sapiens, UniProt Q16584)
T38 construct: purchased DiscoverX scanMAX Kinase panel
Procedure: as §1

T35 sequence (O43353 whole entry): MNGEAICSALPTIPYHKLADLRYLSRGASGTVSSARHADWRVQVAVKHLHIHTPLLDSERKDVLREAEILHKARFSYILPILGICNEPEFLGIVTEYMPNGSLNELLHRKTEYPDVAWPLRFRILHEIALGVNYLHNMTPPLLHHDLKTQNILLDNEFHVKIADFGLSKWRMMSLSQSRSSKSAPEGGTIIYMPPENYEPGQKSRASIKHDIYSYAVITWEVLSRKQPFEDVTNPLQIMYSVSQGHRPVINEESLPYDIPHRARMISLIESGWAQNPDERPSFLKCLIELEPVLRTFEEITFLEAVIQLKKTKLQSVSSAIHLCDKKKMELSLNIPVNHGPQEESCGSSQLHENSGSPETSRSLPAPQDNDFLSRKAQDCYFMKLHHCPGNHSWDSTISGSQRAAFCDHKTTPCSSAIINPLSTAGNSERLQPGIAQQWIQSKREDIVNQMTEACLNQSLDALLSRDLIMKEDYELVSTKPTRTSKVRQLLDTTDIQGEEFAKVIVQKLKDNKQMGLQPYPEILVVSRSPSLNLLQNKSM
T34 sequence (Q9H2G2 whole entry): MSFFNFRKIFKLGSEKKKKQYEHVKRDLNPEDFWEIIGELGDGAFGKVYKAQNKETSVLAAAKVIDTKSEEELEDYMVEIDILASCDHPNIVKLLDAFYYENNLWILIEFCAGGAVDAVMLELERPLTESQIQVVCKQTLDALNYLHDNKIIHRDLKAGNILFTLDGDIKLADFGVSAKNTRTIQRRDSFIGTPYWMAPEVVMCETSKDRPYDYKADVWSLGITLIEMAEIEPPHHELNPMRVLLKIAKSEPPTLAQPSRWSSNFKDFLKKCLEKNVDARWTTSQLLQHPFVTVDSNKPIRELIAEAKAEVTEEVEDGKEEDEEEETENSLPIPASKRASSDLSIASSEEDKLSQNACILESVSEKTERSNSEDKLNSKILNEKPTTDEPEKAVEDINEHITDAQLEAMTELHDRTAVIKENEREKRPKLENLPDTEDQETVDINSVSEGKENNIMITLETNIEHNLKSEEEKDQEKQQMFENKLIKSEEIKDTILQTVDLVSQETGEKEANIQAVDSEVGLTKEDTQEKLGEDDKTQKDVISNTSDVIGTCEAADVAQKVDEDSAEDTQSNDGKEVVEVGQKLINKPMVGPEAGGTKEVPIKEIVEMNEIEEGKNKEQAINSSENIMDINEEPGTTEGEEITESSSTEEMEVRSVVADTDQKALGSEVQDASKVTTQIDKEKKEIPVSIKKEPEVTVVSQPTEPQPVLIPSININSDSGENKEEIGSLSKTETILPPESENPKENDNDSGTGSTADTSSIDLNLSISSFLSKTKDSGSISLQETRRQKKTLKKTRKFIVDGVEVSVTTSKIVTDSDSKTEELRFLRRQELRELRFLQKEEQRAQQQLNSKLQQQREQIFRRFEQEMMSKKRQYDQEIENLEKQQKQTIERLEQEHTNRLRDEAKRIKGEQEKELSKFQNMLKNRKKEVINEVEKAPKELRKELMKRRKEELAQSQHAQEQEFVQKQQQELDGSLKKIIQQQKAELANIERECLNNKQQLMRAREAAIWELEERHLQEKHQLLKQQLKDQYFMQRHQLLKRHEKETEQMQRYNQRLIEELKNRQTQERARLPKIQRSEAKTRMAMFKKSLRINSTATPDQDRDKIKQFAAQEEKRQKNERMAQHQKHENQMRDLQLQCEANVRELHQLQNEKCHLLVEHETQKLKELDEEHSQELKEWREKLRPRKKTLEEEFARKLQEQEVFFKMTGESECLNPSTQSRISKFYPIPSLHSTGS
T8 sequence (P54762 18-984): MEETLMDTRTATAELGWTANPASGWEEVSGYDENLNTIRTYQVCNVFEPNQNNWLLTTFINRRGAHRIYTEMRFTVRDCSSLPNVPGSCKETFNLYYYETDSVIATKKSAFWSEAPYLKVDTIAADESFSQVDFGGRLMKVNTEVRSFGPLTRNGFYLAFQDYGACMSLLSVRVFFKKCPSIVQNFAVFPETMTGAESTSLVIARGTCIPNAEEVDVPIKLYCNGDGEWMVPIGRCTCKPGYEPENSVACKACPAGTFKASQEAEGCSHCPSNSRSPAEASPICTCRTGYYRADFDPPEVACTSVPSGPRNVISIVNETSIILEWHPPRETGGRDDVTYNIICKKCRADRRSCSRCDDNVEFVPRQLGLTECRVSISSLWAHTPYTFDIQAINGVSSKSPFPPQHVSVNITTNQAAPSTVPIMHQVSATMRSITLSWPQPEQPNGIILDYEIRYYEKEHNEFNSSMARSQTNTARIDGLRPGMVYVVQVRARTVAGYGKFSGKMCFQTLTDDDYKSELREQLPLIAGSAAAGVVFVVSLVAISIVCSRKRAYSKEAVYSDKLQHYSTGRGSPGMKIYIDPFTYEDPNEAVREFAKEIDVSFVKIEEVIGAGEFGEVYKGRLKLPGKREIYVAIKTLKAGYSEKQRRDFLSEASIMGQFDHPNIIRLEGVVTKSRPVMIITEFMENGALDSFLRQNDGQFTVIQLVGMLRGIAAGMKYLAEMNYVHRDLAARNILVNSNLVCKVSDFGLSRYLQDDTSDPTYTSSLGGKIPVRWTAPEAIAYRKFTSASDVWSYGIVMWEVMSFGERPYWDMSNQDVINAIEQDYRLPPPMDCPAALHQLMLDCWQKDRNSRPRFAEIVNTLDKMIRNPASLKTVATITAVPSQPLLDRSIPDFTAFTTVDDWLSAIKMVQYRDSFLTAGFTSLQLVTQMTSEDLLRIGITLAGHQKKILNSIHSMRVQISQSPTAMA
T3 sequence (Q02763 23-1124): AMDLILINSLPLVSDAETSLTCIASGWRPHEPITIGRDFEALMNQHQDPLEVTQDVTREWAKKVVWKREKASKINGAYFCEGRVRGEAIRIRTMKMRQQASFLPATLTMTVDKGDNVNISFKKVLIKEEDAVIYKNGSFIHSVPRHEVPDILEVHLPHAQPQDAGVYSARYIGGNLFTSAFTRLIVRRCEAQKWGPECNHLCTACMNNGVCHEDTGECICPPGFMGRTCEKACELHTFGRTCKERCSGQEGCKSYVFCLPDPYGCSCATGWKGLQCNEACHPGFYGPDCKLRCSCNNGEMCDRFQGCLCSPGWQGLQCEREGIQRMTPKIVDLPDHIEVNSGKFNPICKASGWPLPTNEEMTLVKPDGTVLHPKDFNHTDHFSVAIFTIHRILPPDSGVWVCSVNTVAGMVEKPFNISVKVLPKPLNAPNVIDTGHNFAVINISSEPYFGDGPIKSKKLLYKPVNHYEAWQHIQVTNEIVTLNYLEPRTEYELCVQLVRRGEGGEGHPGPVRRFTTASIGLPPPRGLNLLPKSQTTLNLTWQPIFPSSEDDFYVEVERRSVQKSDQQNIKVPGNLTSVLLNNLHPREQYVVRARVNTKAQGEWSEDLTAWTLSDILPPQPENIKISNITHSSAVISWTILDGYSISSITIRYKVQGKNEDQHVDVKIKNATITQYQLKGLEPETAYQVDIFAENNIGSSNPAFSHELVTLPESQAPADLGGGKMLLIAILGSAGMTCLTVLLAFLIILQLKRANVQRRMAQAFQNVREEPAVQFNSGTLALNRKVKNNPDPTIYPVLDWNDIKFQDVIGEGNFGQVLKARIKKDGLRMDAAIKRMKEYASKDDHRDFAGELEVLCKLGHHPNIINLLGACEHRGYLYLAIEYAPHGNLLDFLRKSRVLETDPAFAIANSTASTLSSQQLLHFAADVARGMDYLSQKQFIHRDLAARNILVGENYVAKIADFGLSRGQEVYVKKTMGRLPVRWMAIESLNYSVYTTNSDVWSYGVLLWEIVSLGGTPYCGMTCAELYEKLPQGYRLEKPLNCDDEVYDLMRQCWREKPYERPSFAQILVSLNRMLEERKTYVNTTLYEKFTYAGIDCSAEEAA
T17 sequence (Q9H2K8 whole entry): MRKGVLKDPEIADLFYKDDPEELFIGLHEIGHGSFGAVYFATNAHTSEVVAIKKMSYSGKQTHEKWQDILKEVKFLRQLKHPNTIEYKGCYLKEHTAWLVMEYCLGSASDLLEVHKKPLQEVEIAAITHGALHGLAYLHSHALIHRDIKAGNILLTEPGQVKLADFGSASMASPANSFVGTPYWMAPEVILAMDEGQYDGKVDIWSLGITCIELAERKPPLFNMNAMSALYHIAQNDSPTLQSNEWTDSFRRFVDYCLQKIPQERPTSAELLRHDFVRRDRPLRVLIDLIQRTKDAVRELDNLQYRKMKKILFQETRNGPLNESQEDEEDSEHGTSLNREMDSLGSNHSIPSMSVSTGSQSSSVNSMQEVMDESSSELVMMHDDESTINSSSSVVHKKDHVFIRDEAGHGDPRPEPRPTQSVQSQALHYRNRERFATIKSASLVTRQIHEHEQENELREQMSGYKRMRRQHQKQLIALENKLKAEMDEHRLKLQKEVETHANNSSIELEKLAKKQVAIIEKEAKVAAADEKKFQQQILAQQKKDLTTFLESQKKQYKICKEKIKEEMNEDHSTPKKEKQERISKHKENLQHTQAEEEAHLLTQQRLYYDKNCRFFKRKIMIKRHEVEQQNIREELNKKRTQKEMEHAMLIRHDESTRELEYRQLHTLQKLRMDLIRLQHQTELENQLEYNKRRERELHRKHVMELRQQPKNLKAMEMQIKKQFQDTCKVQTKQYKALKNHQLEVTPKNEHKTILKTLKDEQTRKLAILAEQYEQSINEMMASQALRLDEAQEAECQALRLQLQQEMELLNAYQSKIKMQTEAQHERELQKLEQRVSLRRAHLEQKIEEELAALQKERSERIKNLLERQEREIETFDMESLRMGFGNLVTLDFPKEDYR
T24 sequence (P29597 897-1176 limits assumed): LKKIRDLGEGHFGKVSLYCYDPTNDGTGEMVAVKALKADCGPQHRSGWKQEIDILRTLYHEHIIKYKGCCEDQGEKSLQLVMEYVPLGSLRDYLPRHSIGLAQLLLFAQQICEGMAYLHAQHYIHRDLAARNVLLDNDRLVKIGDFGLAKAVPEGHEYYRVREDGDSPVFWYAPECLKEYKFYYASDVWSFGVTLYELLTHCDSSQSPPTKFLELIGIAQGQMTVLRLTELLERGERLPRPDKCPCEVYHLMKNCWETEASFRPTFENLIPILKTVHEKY

SMILES	% Cont @ 1 uM [1]	remaining binding at 1 µM [2]	remaining binding at 1 µM [3]	remaining binding at 1 µM [4]	% Cont @ 1 uM [5]	remaining binding at 1 µM [6]	remaining binding at 1 µM [7]	remaining binding at 1 µM [8]	remaining binding at 1 µM [9]	remaining binding at 1 µM [10]	remaining binding at 1 µM [11]	% Cont @ 1 uM [12]	remaining binding at 1 µM [13]	% Cont @ 1 uM [14]	remaining binding at 1 µM [15]	remaining binding at 1 µM [16]	remaining binding at 1 µM [17]	remaining binding at 1 µM [18]	percent of control binding at 1 µM [19]	remaining binding at 1 µM [20]	also measured
Cc1cn(-c2cc(NC(=O)c3cc(C#Cc4cnc5c(Nc6cnn(C)c6)cccn45)c(C)cc3F)cc(C(C)(C)C#N)c2)cn1 [Example 1, N-(3-(2-cyanopropane-2-yl)-5-(4-methyl-1H-imidazol-1-yl)phenyl)-2-fluoro-4-methyl-5-((8-((1-methyl-1H-pyrazol-4-yl)amino)imidazo[1,2-a]pyridin-3-yl)ethynyl)benzamide]	16%	23%	0.4%	17%	34%	1.8%	8.9%	17%	33%	6.1%	16%	5.2%	3.5%	2%	1.6%	0.85%	1.6%	31%	2%	1.2%	% Cont @ 1 uM [21]: 5.7%; remaining binding at 1 µM [22]: 0.25%; percent of control binding at 1 µM [23]: 13%; % Cont @ 1 uM [24]: 33%; remaining binding at 1 µM [25]: 6.7%; remaining binding at 1 µM [26]: 27%; % Cont @ 1 uM [27]: 14.8%; remaining binding at 1 µM [28]: 15%; remaining binding at 1 µM [29]: 16%; remaining binding at 1 µM [30]: 4.3%; remaining binding at 1 µM [31]: 25%; remaining binding at 1 µM [32]: 2.5%; % Cont @ 1 uM [33]: 20%; remaining binding at 1 µM [34]: 1.2%; remaining binding at 1 µM [35]: 3%; % Cont @ 1 uM [36]: 5.1%; remaining binding at 1 µM [37]: 1.4%; % Cont @ 1 uM [38]: 17%; % Cont @ 1 uM [39]: 10%
Cc1cn(-c2cc(NC(=O)c3cc(C#Cc4cnc5c(Nc6cnn(C)c6)cccn45)c(C)cc3F)cc(C(F)(F)F)c2)cn1 [Example 4, 2-fluoro-4-methyl-N-(3-(4-methyl-1H-imidazol-1-yl)-5-(trifluoromethyl)phenyl)-5-((8-((1-methyl-1H-pyrazol-4-yl)amino)imidazo[1,2-a]pyridin-3-yl)ethynyl)benzamide]	65%	85%	0.7%	88%	89%	41%	10%	26%	100%	3.3%	63%	56%	12%	14%	11%	15%	12%	35%	11%	27%	% Cont @ 1 uM [21]: 30%; remaining binding at 1 µM [22]: 25%; percent of control binding at 1 µM [23]: 61%; % Cont @ 1 uM [24]: 72%; remaining binding at 1 µM [25]: 3.6%; remaining binding at 1 µM [26]: 92%; % Cont @ 1 uM [27]: 55%; remaining binding at 1 µM [28]: 4.1%; remaining binding at 1 µM [29]: 25%; remaining binding at 1 µM [30]: 76%; remaining binding at 1 µM [31]: 80%; remaining binding at 1 µM [32]: 10%; % Cont @ 1 uM [33]: 70%; remaining binding at 1 µM [34]: 34%; remaining binding at 1 µM [35]: 37%; % Cont @ 1 uM [36]: 37%; remaining binding at 1 µM [37]: 11%; % Cont @ 1 uM [38]: 87%; % Cont @ 1 uM [39]: 57%
